Legend:
Lovo cells = assay: Cancer cell proliferation inhibition (Cell Counting Kit-8), colorectal cancer cell line; assay type: cell-based; conditions: Homo sapiens, LoVo, 264 h, 1000 nM, cultured seven to 11 days; read-out: % inhibition rate LoVo
Procedure, shortened: (§1)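 Cells seeded at 100-1,000/well in medium with 10% FBS and treated with 1000 nM test substance for 7-11 days. Viability measured with Cell Counting Kit-8; % inhibition = {1−(test/control)} × 100.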

MIA-PaCa-2 cells = assay: Cancer cell proliferation inhibition (Cell Counting Kit-8), pancreatic cancer cell line; assay type: cell-based; conditions: Homo sapiens, MIA PaCa-2, 264 h, 1000 nM, cultured seven to 11 days; read-out: % inhibition rate MIA-Paca2
Procedure, shortened: as §1

G401 cells = assay: Cancer cell proliferation inhibition (Cell Counting Kit-8), rhabdoid tumor cell line; assay type: cell-based; conditions: Homo sapiens, G-401, 264 h, 1000 nM, cultured seven to 11 days; read-out: % inhibition rate G401
Procedure, shortened: (§2)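 Cells grown in RPMI1640, McCoy's 5a, L-15 or DMEM with 10% FBS, seeded at 100 to 1,000 cells/well and treated with test substance at 1000 nM for 7 to 11 days. Viability read by CCK-8; % inhibition = {1−(test/control)} × 100.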

EZH1 = EZH1 (Homo sapiens, UniProt Q92800); assay: AlphaLISA enzyme activity inhibition, EZH1; assay type: biochemical; conditions: 5nM test substance
EZH1, sequence (Q92800 whole entry, species assumed): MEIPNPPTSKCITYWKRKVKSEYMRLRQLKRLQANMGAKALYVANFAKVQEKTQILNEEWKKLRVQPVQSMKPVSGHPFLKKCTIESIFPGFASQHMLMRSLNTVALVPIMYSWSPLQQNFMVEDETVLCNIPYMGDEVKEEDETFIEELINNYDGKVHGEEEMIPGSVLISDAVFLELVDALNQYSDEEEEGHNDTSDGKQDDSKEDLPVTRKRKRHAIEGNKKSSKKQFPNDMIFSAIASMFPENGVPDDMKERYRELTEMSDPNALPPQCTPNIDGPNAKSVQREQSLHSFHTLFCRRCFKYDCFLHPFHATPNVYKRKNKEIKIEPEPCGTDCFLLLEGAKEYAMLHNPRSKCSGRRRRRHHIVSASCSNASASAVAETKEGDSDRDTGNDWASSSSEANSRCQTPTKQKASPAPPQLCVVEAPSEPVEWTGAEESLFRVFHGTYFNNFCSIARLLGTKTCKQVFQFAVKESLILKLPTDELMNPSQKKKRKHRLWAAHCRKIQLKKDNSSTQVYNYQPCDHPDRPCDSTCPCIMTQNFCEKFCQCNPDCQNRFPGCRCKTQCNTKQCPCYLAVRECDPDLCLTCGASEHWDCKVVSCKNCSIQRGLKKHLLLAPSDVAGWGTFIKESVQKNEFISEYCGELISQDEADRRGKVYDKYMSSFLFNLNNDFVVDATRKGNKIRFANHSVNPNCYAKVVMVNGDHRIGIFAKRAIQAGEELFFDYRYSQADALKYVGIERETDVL
EZH1, sequence (O75530 whole entry partner, species assumed): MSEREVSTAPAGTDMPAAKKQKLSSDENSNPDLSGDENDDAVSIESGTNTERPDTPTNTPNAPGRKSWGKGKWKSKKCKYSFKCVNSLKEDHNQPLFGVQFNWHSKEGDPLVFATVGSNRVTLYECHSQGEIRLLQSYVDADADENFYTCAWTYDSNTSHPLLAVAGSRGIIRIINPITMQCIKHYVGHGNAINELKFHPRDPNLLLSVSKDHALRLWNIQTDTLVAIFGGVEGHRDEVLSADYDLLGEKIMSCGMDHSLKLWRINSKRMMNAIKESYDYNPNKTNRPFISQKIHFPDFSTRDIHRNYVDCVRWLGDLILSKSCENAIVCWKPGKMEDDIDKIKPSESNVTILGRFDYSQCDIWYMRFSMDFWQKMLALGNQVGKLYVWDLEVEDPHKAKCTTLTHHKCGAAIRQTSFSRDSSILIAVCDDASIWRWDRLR
EZH1, sequence (Q15022 whole entry partner, species assumed): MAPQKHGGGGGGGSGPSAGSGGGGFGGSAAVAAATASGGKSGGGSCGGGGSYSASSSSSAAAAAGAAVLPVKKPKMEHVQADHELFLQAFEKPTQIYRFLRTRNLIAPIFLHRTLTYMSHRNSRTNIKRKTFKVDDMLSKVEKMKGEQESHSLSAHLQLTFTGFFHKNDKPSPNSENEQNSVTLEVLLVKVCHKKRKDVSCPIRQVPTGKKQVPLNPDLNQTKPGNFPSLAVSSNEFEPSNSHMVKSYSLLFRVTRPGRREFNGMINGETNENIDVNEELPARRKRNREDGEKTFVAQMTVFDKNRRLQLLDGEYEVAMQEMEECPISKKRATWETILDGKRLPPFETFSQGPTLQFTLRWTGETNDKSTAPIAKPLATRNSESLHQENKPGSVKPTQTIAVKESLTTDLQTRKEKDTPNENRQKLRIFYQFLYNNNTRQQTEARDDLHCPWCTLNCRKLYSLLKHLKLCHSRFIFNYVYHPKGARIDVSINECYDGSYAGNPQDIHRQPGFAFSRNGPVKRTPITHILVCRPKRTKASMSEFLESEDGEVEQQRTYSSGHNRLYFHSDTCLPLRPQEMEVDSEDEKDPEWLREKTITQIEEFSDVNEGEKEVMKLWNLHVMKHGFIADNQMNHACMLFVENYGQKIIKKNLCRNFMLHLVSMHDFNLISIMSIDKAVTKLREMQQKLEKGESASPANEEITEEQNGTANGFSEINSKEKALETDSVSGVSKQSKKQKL
Procedure, shortened: (§3)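 EZH1 or EZH2 was mixed with compound at 5 nM or 10 nM final in 20 mM Tris pH 8.0, 0.1% BSA, 0.5 mM DTT, then histone H3 peptide and SAM were added. After 2 h reaction, AlphaLISA acceptor and donor beads detected methylation; inhibition rate was calculated against DMSO control.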

SW-13 cells = assay: Cancer cell proliferation inhibition (Cell Counting Kit-8), adrenal cancer cell line; assay type: cell-based; conditions: Homo sapiens, SW13, 264 h, 1000 nM, cultured seven to 11 days; read-out: % inhibition rate SW-13
Procedure, shortened: as §1

MKN-45 cells = assay: Cancer cell proliferation inhibition (Cell Counting Kit-8), gastric cancer cell line; assay type: cell-based; conditions: Homo sapiens, MKN-45, 264 h, 1000 nM, cultured seven to 11 days; read-out: % inhibition rate MKN -45
Procedure, shortened: as §2

NCI-H1299 cells = assay: Cancer cell proliferation inhibition (Cell Counting Kit-8), lung cancer cell line; assay type: cell-based; conditions: Homo sapiens, NCI-H1299, 264 h, 1000 nM, cultured seven to 11 days; read-out: % inhibition rate NCI-H129 9
Procedure, shortened: as §1

EZH2 = EZH2 (Homo sapiens, UniProt Q15910); assay: AlphaLISA enzyme activity inhibition, EZH2; assay type: biochemical; conditions: 5nM test substance
EZH2, sequence (Q15910 whole entry, species assumed): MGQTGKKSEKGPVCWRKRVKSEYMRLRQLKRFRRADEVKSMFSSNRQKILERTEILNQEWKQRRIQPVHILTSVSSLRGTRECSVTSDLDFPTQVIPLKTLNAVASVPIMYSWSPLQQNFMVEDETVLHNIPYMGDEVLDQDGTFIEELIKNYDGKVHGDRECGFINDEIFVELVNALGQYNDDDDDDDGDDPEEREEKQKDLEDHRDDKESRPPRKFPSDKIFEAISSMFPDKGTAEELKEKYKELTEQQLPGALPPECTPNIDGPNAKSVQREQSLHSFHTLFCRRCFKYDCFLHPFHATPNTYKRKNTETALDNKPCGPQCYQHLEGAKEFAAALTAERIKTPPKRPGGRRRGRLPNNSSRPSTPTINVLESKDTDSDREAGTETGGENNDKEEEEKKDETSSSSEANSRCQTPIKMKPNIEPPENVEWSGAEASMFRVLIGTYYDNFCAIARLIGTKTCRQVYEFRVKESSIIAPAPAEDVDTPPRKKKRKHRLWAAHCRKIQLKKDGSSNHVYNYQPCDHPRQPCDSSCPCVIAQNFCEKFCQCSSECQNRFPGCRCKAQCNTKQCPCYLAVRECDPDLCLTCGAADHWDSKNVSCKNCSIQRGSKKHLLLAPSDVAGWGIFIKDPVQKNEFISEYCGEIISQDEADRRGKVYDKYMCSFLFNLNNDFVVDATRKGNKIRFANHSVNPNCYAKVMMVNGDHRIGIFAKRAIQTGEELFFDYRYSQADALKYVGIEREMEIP
EZH2, sequence (O75530 whole entry partner, species assumed): as the sequence (O75530 whole entry partner, species assumed) above
EZH2, sequence (Q15022 whole entry partner, species assumed): as the sequence (Q15022 whole entry partner, species assumed) above
Procedure, shortened: as §3

Compound | inhibition at 1 µM (Lovo cells) | inhibition at 1 µM (MIA-PaCa-2 cells) | inhibition at 1 µM (G401 cells) | inhibition at 0.005 µM (EZH1) | inhibition at 1 µM (SW-13 cells) | inhibition at 1 µM (MKN-45 cells) | inhibition at 1 µM (NCI-H1299 cells) | inhibition at 0.005 µM (EZH2)
CSc1cc(C)[nH]c(=O)c1CNC(=O)c1cc(-c2ccc(N3C[C@@H](C)O[C@@H](C)C3)nc2)c2c(c1C)OC(C)([C@H]1CC[C@H](N(C)CC3OCCO3)CC1)O2 (stereo partly drawn) [Compound 32, 2-(trans-4-(((1,3-dioxolan-2-yl)methyl)(methyl)amino)cyclohexyl)-7-(6-((2S,6R)-2,6-dimethylmorpholino)pyridin-3-yl)-2,4-dimethyl-N-((6-methyl-4-(methylthio)-2-oxo-1,2-dihydropyridin-3-yl)methyl)benzo[d][1,3]dioxole-5-carboxamide] | ≥ 70% | ≤ 30% | 30 to 70% | 74.1% | 30 to 70% | 30 to 70% | 30 to 70% | 82.6%
CSc1cc(C)[nH]c(=O)c1CNC(=O)c1cc(-c2ccc(N3C[C@@H](C)O[C@@H](C)C3)nc2)c2c(c1C)OC(C)(C1CCN(CC(F)(F)F)CC1)O2 (stereo partly drawn) [Compound 33, 7-(6-((2S,6R)-2,6-dimethylmorpholino)pyridin-3-yl)-2,4-dimethyl-N-((6-methyl-4-(methylthio)-2-oxo-1,2-dihydropyridin-3-yl)methyl)-2-(1-(2,2,2-trifluoroethyl)piperidin-4-yl)benzo[d][1,3]dioxole-5-carboxamide] | ≥ 70% | ≤ 30% | ≥ 70% | 37.6% | 30 to 70% | 30 to 70% | ≤ 30% | 59.1%
CSc1cc(C)[nH]c(=O)c1CNC(=O)c1cc(-c2ccc(N3CCSCC3)nc2)c2c(c1C)OC(C)(C1CCN(CC(F)(F)F)CC1)O2 (centres unmarked) [Compound 34, 2,4-dimethyl-N-((6-methyl-4-(methylthio)-2-oxo-1,2-dihydropyridin-3-yl)methyl)-7-(6-thiomorpholinopyridin-3-yl)-2-(1-(2,2,2-trifluoroethyl)piperidin-4-yl)benzo[d][1,3]dioxole-5-carboxamide] | ≥ 70% | ≤ 30% | 30 to 70% | 24.9% | ≤ 30% | ≤ 30% | ≤ 30% | 41.1%
CSc1cc(C)[nH]c(=O)c1CNC(=O)c1cc(-c2cnc(N(C)C)nc2)c2c(c1C)OC(C)(C1CCN(CC(F)(F)F)CC1)O2 (centres unmarked) [Compound 35, 7-(2-(dimethylamino)pyrimidin-5-yl)-2,4-dimethyl-N-((6-methyl-4-(methylthio)-2-oxo-1,2-dihydropyridin-3-yl)methyl)-2-(1-(2,2,2-trifluoroethyl)piperidin-4-yl)benzo[d][1,3]dioxole-5-carboxamide] | ≥ 70% | ≤ 30% | ≥ 70% | 67.7% | ≤ 30% | ≤ 30% | ≤ 30% | 94%
COc1ccc(-c2cc(C(=O)NCc3c(SC)cc(C)[nH]c3=O)c(C)c3c2OC(C)(C2CCN(CC(F)(F)F)CC2)O3)cn1 (centres unmarked) [Compound 36, 7-(6-methoxypyridin-3-yl)-2,4-dimethyl-N-((6-methyl-4-(methylthio)-2-oxo-1,2-dihydropyridin-3-yl)methyl)-2-(1-(2,2,2-trifluoroethyl)piperidin-4-yl)benzo[d][1,3]dioxole-5-carboxamide] | ≥ 70% | ≤ 30% | ≥ 70% | 57.4% | ≤ 30% | ≤ 30% | ≤ 30% | 83.1%
CSc1cc(C)[nH]c(=O)c1CNC(=O)c1cc(-c2cnc(N3C[C@@H](C)O[C@@H](C)C3)nc2)c2c(c1C)OC(C)(C1CCN(CC(F)(F)F)CC1)O2 (stereo partly drawn) [Compound 38, 7-(2-((2S,6R)-2,6-dimethylmorpholino)pyrimidin-5-yl)-2,4-dimethyl-N-((6-methyl-4-(methylthio)-2-oxo-1,2-dihydropyridin-3-yl)methyl)-2-(1-(2,2,2-trifluoroethyl)piperidin-4-yl)benzo[d][1,3]dioxole-5-carboxamide] | ≥ 70% | ≤ 30% | ≥ 70% | 40.6% | ≤ 30% | 30 to 70% | 30 to 70% | 57.4%
CSc1cc(C)[nH]c(=O)c1CNC(=O)c1cc(-c2cnc(N3CCCCC3)nc2)c2c(c1C)OC(C)(C1CCN(CC(F)(F)F)CC1)O2 (centres unmarked) [Compound 39, 2,4-dimethyl-N-((6-methyl-4-(methylthio)-2-oxo-1,2-dihydropyridin-3-yl)methyl)-7-(2-(piperidin-1-yl)pyrimidin-5-yl)-2-(1-(2,2,2-trifluoroethyl)piperidin-4-yl)benzo[d][1,3]dioxole-5-carboxamide] | ≥ 70% | ≤ 30% | 30 to 70% | 20.5% | ≤ 30% | ≤ 30% | ≤ 30% | 62%
CSc1cc(C)[nH]c(=O)c1CNC(=O)c1cc(-c2ccc(N3C[C@@H](C)O[C@@H](C)C3)nc2)c2c(c1C)OC(C)(C1CCN(C[C@H](C)O)CC1)O2 (stereo partly drawn) [Compound 40, 7-(6-((2S,6R)-2,6-dimethylmorpholino)pyridin-3-yl)-2-(1-((S)-2-hydroxypropyl)piperidin-4-yl)-2,4-dimethyl-N-((6-methyl-4-(methylthio)-2-oxo-1,2-dihydropyridin-3-yl)methyl)benzo[d][1,3]dioxole-5-carboxamide] | 30 to 70% | ≤ 30% | ≥ 70% | 73.8% | 30 to 70% | ≤ 30% | 30 to 70% | 94.6%
COC(CN1CCC(C2(C)Oc3c(-c4ccc(N5C[C@@H](C)O[C@@H](C)C5)nc4)cc(C(=O)NCc4c(SC)cc(C)[nH]c4=O)c(C)c3O2)CC1)OC (stereo partly drawn) [Compound 41, 2-(1-(2,2-dimethoxyethyl)piperidin-4-yl)-7-(6-((2S,6R)-2,6-dimethylmorpholino)pyridin-3-yl)-2,4-dimethyl-N-((6-methyl-4-(methylthio)-2-oxo-1,2-dihydropyridin-3-yl)methyl)benzo[d][1,3]dioxole-5-carboxamide] | ≥ 70% | ≤ 30% | ≥ 70% | 69.1% | ≤ 30% | ≤ 30% | ≤ 30% | 96.8%
CSc1cc(C)[nH]c(=O)c1CNC(=O)c1cc(-c2ccsc2)c2c(c1C)OC(C)(C1CCC(N(C)C)CC1)O2 (centres unmarked) [Compound 42, 2-(4-(dimethylamino)cyclohexyl)-2,4-dimethyl-N-((6-methyl-4-(methylthio)-2-oxo-1,2-dihydropyridin-3-yl)methyl)-7-(thiophen-3-yl)benzo[d][1,3]dioxole-5-carboxamide] | ≥ 70% | ≤ 30% | ≥ 70% | 59.6% | 30 to 70% | 30 to 70% | 30 to 70% | 90.5%
